Results from US8637043B2, “Compositions useful as ligands for the formyl peptide receptor like 1 receptor and methods of use thereof” (Chemocentryx, Inc., priority 2001, dated 2014).
Where “and” joins values, the source holds several entries; their conditions need not be identical. Equal values may be shown once. Ends that are not written are not given here.

B1: CKβ8-1(25-116): novel NH2-terminal truncated form of CKβ8-1, SEQ ID NO: 16, human recombinant chemokine (protein, listed as Homo sapiens)
chain: MLWRRKIGPQMTLSHAAGFHATSADCCISYTPRSIPCSLLESYFETNSECSKPGVIFLTKKGRRFCANPSDKQVQVCMRMLKLDTRIKTRKN

How the values were obtained:
OVA-specific IgG = experiment: Adjuvant activity, anti-OVA antibodies in Rhesus monkeys (Example 16); assay type: in vivo; conditions: effectiveness as adjuvant
Method: First, 96-well U-bottom plastic dishes were coated overnight with 1 μg ovalbumin (OVA) in 100 μl PBS per well. The next day, the dishes were rinsed with PBS, blocked with PBS containing 5% fetal bovine serum (FBS), and rinsed with PBS again. Plasma samples from experimental animals (see below) were diluted 10^2- to 10^5-fold and added to the dishes for 2 hours, after which the dishes were again rinsed with PBS. The dishes were then incubated with biotinylated goat anti-monkey IgG detection antibodies, then rinsed with PBS and incubated with streptavidin-linked horseradish peroxidase (SA-HRP). After a final rinsing with PBS, the HRP substrate 2,2′-Azinobis [3-ethylbenzothiazoline-6-sulfonic acid]-diammonium salt was added. Color development was measured with an ELISA plate reader at 405 nm, and optical density (OD) units were converted to arbitrary “antibody units,” where a unit is defined as the inverse of the plasma dilution that produces 50% of the maximum response from a standard curve obtained by serial dilution of an ascites collected from OVA-injected mice and containing OVA-specific antibodies.
Since the SHAAYtide (SEQ ID NO:6) and the chemokines mC10 and vMCK-2 recruited APCs, including dendritic cells, to the site of injection, these polypeptides were tested for their ability to act as immunization adjuvants to augment the immune response to a co-injected foreign antigen. […]

OVA-specific antibody = OVA-specific antibody responses with IFA or alum adjuvant in Rhesus monkeys (Example 18); assay type: in vivo
Method: First, 96-well U-bottom plastic dishes were coated overnight with 1 μg ovalbumin (OVA) in 100 μl PBS per well. The next day, the dishes were rinsed with PBS, blocked with PBS containing 5% fetal bovine serum (FBS), and rinsed with PBS again. Plasma samples from experimental animals (see below) were diluted 10^2- to 10^5-fold and added to the dishes for 2 hours, after which the dishes were again rinsed with PBS. The dishes were then incubated with biotinylated goat anti-monkey IgG detection antibodies, then rinsed with PBS and incubated with streptavidin-linked horseradish peroxidase (SA-HRP). After a final rinsing with PBS, the HRP substrate 2,2′-Azinobis [3-ethylbenzothiazoline-6-sulfonic acid]-diammonium salt was added.
Different types of immune responses can be induced in mammals by varying parameters such as the dose of antigen, the formulation, the route of administration, and the type of adjuvant.

dendritic cells = experiment: Dendritic cell infiltration after intradermal injection in mice (anti-DEC-205 staining); assay type: in vivo; design: key to Dendritic cell infiltration Score / Infiltration Score: 0 = none, 1 = slight, 2 = mild, 3 = moderate, 4 = severe
Text: The following chemokines were obtained from R&D Systems (Minneapolis, Minn.): vMCK-2, mC10, and GM-CSF. The following peptides were synthesized at Phoenix Pharmaceuticals (San Carlos, Calif.): SHAAYtide (SEQ ID NO:6), several […] MODIFIED peptides of SHAAGtide variant (SEQ ID NO:) (i.e. cyclized using the MPR-Cys linked cyclization), control peptide (SEQ ID NO:33, […]Gin Pro Gly lie Lys Arg Arg Trp Leu Met), randomly conjugated to OVA in either a 1:1 or 1:4 ratio (by MBS coupling method), and conjugated to OVA at the C-terminus (C-term, made by the addition of a cysteine), and SHAAGtide variant (SEQ ID NO:3). In three separate experiments, chemokines or peptides (2 μg or 20 μg in PBS) were injected intradermally into BALB/c or C57BI/6 mice (Jackson Laboratory; Bar Harbor, Me.). In each experiment, one mouse received an injection of PBS only as a negative control. At various times after injection, the mice were euthanized, and the area around the injection site was excised and subjected to immunohistology. Frozen sections were stained with anti-DEC-205 antibody (Bio-Whittaker Molecular Applications; Rockland, Me.) that recognizes a dendritic cell-specific molecule (Kraal et al., 1986). A relative staining number on a scale of […] was assigned to each section (0, none; 1, slight; 2, mild; 3, moderate; 4, severe).

native L1.2 cells = experiment: Calcium flux in parental L1.2 cells or cells transfected with other chemokine receptors; assay type: cell-based, murine; conditions: pariental cells or cells transfected with other chemokine receptors
Text: The functional activities of CKβ8-1 (25-116) were investigated in human FPRL1-L1.2 transfectants and in native L1.2 cells. Stable expression of formyl peptide-like receptor 1 (FPRL1) in L.1.2 cell was obtained as follows. Full length cDNA encoding FPRL1 was cloned, using the polymerase chain reaction (PCR), from genomic DNA isolated from undifferentiated HL-60 cells. The polymerase chain reaction product was cloned into pcDNA3.1 (Invitrogen, Carlsbad, Calif.) using standard molecular cloning procedures and completely sequenced to confirm identity. Twenty micrograms of the FPRL1/pcDNA3.1 construct were linearized by digestion with Bsm1 (New England Biolabs, Beverly, Mass.) and used to transfect the murine B cell line L1.2 as follows. Twenty five million cells were washed twice and resuspended in 0.8 ml of PBS. The cells were incubated for 10 min at room temperature with the linearized FPRL/pcDNA3.1 construct DNA and transferred to a 0.4-cm cuvette, and a single electroporation pulse was applied at 250 V, 960 μF. Electroporated cells were incubated for 10 min at room temperature and transferred to culture at 37° C. in RPMI supplemented with 10% FCS. […] After 2-3 weeks under drug selection, stable geneticin-resistant FPLR1 expressing cells were assessed for their ability to mobilize Ca^++ in response to SHAAGtide or CKbeta 8-1 at concentrations of 1 to 1000 nM. […]

Molecule | Notes: adjuvant (OVA-specific IgG) | effect of co-administration on the OVA with IFA response (OVA-specific antibody; IFA adjuvant) | effect of co-administration on the IgG response induced by OVA plus alum (OVA-specific antibody; alum adjuvant) | Dendritic cell infiltration Score (dendritic cells; BALBc mice, 2 μg, 6 hours, listed as SHAAYtide (SEQ ID NO: 6)) | Dendritic cell infiltration Score (dendritic cells; BALBc mice, 2 μg, 30 hours, listed as SHAAYtide (SEQ ID NO: 6)) | Dendritic cell infiltration Score (dendritic cells; BALBc mice, 20 μg, 6 hours, listed as SHAAYtide (SEQ ID NO: 6)) | Dendritic cell infiltration Score (dendritic cells; C57B1/6 mice, 2 μg dose, 6 hours, 0 none, 1 slight, 2 mild, 3 moderate, 4 severe, one animal per line) | Dendritic cell infiltration Score (dendritic cells; C57B1/6 mice, 2 μg dose, 30 hours) | Dendritic cell infiltration Score (dendritic cells; C57B1/6 mice, 2 μg dose, 51 hours) | infiltration of DEC-205-labeled cells (dendritic cells; summary of Tables 15, 16 and 17) | induced calcium release (native L1.2 cells)
MLWRRKIGPQMTLSHAAY [SEQ ID NO: 6] | effective | did not diminish the OVA with IFA response | dramatically reduced the IgG response induced by OVA plus alum | 2 and 3 | 3 and 2 | 2 and 3 | 1 | 0 | 0 | excellent infiltration | 
B1 |  |  |  |  |  |  |  |  |  |  | not observed
